In patent US11987588B2, “Modulators of the beta-3 adrenergic receptor useful for the treatment or prevention of heart failure and disorders related thereto” (Arena Pharmaceuticals, Inc., priority 2017, dated 2024):
pIC50: −log10 of the molar value.

What follows are compounds tested against Beta-3 Adrenergic Receptor (Homo sapiens (Human), UniProt P13945) (assay: Homogeneous Time-Resolved Fluorescence (HTRF) cAMP antagonist assay, IC50 determination). Settings: CHO-K1 cells stably expressing recombinant receptor, isoproterenol at EC90.
Assay type: cell-based
Summary of the method: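 Antagonist mode: isoproterenol at its predetermined EC90 added after compound to recombinant CHO-K1 cells in IBMX-containing PBS, 1 h, room temperature. Compounds tested as 5-fold, 10-point dilutions, top final typically 10 or 100 μM. HTRF signal converted to cAMP via standard curve, giving IC50.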

Beta-3 Adrenergic Receptor, sequence (P13945 whole entry, species assumed): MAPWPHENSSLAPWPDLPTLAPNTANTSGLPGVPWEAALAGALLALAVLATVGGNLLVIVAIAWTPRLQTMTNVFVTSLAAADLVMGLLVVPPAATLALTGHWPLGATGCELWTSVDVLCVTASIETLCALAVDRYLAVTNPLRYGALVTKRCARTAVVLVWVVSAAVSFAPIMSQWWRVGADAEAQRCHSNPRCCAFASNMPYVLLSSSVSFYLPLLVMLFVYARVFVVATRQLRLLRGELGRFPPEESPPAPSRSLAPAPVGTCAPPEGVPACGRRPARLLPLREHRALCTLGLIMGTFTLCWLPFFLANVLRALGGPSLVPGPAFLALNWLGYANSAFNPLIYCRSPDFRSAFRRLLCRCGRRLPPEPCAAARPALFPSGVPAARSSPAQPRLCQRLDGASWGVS

Compound | pIC50
CNS(=O)(=O)c1cccc(OC[C@@H](O)CN[C@H]2COC3(CCN(S(=O)(=O)c4cc5c(nc4N(C)C)OCCN5C)CC3)C2)c1 [Compound 453, 3-((S)-3-((R)-8-(6-(dimethylamino)-1-methyl-2,3-dihydro-1H-pyrido[2,3-b][1,4]oxazin-7-ylsulfonyl)-1-oxa-8-azaspiro[4.5]decan-3-ylamino)-2-hydroxypropoxy)-N-methylbenzenesulfonamide] | 6.94
CNS(=O)(=O)c1cccc(OC[C@@H](O)CN[C@H]2COC3(CCN(S(=O)(=O)c4cc5c(nc4O)OCCN5C)CC3)C2)c1 [Compound 454, 3-((S)-2-hydroxy-3-((R)-8-(6-hydroxy-1-methyl-2,3-dihydro-1H-pyrido[2,3-b][1,4]oxazin-7-ylsulfonyl)-1-oxa-8-azaspiro[4.5]decan-3-ylamino)propoxy)-N-methylbenzenesulfonamide] | 6.34
CNS(=O)(=O)c1cccc(OC[C@@H](O)CN[C@H]2COC3(CCN(S(=O)(=O)c4cc5c(nc4N)OCCN5C)CC3)C2)c1 [Compound 455, 3-((S)-3-((R)-8-(6-amino-1-methyl-2,3-dihydro-1H-pyrido[2,3-b][1,4]oxazin-7-ylsulfonyl)-1-oxa-8-azaspiro[4.5]decan-3-ylamino)-2-hydroxypropoxy)-N-methylbenzenesulfonamide] | 7.60
CCNS(=O)(=O)c1cccc(OC[C@@H](O)CN[C@H]2COC3(CCN(S(=O)(=O)c4cnc5c(c4)N(C)CCO5)CC3)C2)c1 [Compound 456, N-ethyl-3-((S)-2-hydroxy-3-((R)-8-(1-methyl-2,3-dihydro-1H-pyrido[2,3-b][1,4]oxazin-7-ylsulfonyl)-1-oxa-8-azaspiro[4.5]decan-3-ylamino)propoxy)benzenesulfonamide] | 7.79
CN1CCOc2ncc(S(=O)(=O)N3CCC4(CC3)C[C@@H](NC[C@H](O)COc3cccc(S(=O)(=O)NCCF)c3)CO4)cc21 [Compound 457, N-(2-fluoroethyl)-3-((S)-2-hydroxy-3-((R)-8-(1-methyl-2,3-dihydro-1H-pyrido[2,3-b][1,4]oxazin-7-ylsulfonyl)-1-oxa-8-azaspiro[4.5]decan-3-ylamino)propoxy)benzenesulfonamide] | 7.53
CN1CCOc2ncc(S(=O)(=O)N3CCC4(CC3)C[C@@H](NC[C@H](O)COc3cccc(S(N)(=O)=O)c3)CO4)cc21 [Compound 458, 3-((S)-2-hydroxy-3-((R)-8-(1-methyl-2,3-dihydro-1H-pyrido[2,3-b][1,4]oxazin-7-ylsulfonyl)-1-oxa-8-azaspiro[4.5]decan-3-ylamino)propoxy)benzenesulfonamide] | 7.34
COCCNS(=O)(=O)c1cccc(OC[C@@H](O)CN[C@H]2COC3(CCN(S(=O)(=O)c4cnc5c(c4)N(C)CCO5)CC3)C2)c1 [Compound 459, 3-((S)-2-hydroxy-3-((R)-8-(1-methyl-2,3-dihydro-1H-pyrido[2,3-b][1,4]oxazin-7-ylsulfonyl)-1-oxa-8-azaspiro[4.5]decan-3-ylamino)propoxy)-N-(2-methoxyethyl)benzenesulfonamide] | 6.80
CN1CCOc2ncc(S(=O)(=O)N3CCC4(CC3)C[C@@H](NC[C@H](O)COc3cccc(S(=O)(=O)NCC#N)c3)CO4)cc21 [Compound 460, N-(cyanomethyl)-3-((S)-2-hydroxy-3-((R)-8-(1-methyl-2,3-dihydro-1H-pyrido[2,3-b][1,4]oxazin-7-ylsulfonyl)-1-oxa-8-azaspiro[4.5]decan-3-ylamino)propoxy)benzenesulfonamide] | 5.52
CN1CCOc2ncc(S(=O)(=O)N3CCC4(CC3)C[C@@H](NC[C@H](O)COc3cccc(S(=O)(=O)NCC(F)F)c3)CO4)cc21 [Compound 461, N-(2,2-difluoroethyl)-3-((S)-2-hydroxy-3-((R)-8-(1-methyl-2,3-dihydro-1H-pyrido[2,3-b][1,4]oxazin-7-ylsulfonyl)-1-oxa-8-azaspiro[4.5]decan-3-ylamino)propoxy)benzenesulfonamide] | 7.50
CNS(=O)(=O)c1cccc(OC[C@@H](O)CN[C@H]2COC3(CCN(S(=O)(=O)c4cnc5c(c4)N(CCOCc4ccccc4)CCO5)CC3)C2)c1 [Compound 462, 3-((S)-3-((R)-8-(1-(2-(benzyloxy)ethyl)-2,3-dihydro-1H-pyrido[2,3-b][1,4]oxazin-7-ylsulfonyl)-1-oxa-8-azaspiro[4.5]decan-3-ylamino)-2-hydroxypropoxy)-N-methylbenzenesulfonamide] | 6.97
CNS(=O)(=O)c1cccc(OC[C@@H](O)CN[C@@H]2COC3(CCN(S(=O)(=O)c4ccc(OC)c(-c5ccc(C6(N)CC6)cc5)c4)CC3)C2)c1 [Compound 463, 3-((S)-3-((S)-8-(4′-(1-aminocyclopropyl)-6-methoxybiphenyl-3-ylsulfonyl)-1-oxa-8-azaspiro[4.5]decan-3-ylamino)-2-hydroxypropoxy)-N-methylbenzenesulfonamide] | 7.61
CNS(=O)(=O)c1cccc(OC[C@@H](O)CN[C@H]2COC3(CCN(S(=O)(=O)c4ccc(OC)c(-c5ccc(C6(N)CC6)cc5)c4)CC3)C2)c1 [Compound 464, 3-((S)-3-((R)-8-(4′-(1-aminocyclopropyl)-6-methoxybiphenyl-3-ylsulfonyl)-1-oxa-8-azaspiro[4.5]decan-3-ylamino)-2-hydroxypropoxy)-N-methylbenzenesulfonamide] | 7.86
CNS(=O)(=O)c1cccc(OC[C@@H](O)CN[C@H]2COC3(CCN(S(=O)(=O)c4cnc5c(c4)N(CCO)CCO5)CC3)C2)c1 [Compound 465, 3-((S)-2-hydroxy-3-((R)-8-(1-(2-hydroxyethyl)-2,3-dihydro-1H-pyrido[2,3-b][1,4]oxazin-7-ylsulfonyl)-1-oxa-8-azaspiro[4.5]decan-3-ylamino)propoxy)-N-methylbenzenesulfonamide] | 7.58
CNS(=O)(=O)c1cccc(OC[C@@H](O)CN[C@H]2COC3(CCN(S(=O)(=O)c4cc5c(nc4C)OCCN5C)CC3)C2)c1 [Compound 466, 3-((S)-3-((R)-8-(1,6-dimethyl-2,3-dihydro-1H-pyrido[2,3-b][1,4]oxazin-7-ylsulfonyl)-1-oxa-8-azaspiro[4.5]decan-3-ylamino)-2-hydroxypropoxy)-N-methylbenzenesulfonamide] | 7.00
CNS(=O)(=O)c1cccc(OC[C@@H](O)CN[C@H]2COC3(CCN(S(=O)(=O)c4cnc5c(c4C)N(C)CCO5)CC3)C2)c1 [Compound 467, 3-((S)-3-((R)-8-(1,8-dimethyl-2,3-dihydro-1H-pyrido[2,3-b][1,4]oxazin-7-ylsulfonyl)-1-oxa-8-azaspiro[4.5]decan-3-ylamino)-2-hydroxypropoxy)-N-methylbenzenesulfonamide] | 7.48
CNS(=O)(=O)c1cccc(OC[C@@H](O)CN[C@H]2COC3(CCN(S(=O)(=O)c4cnc5c(c4)N(C)C[C@@H](C)O5)CC3)C2)c1 [Compound 468, 3-((S)-3-((R)-8-((R)-1,3-dimethyl-2,3-dihydro-1H-pyrido[2,3-b][1,4]oxazin-7-ylsulfonyl)-1-oxa-8-azaspiro[4.5]decan-3-ylamino)-2-hydroxypropoxy)-N-methylbenzenesulfonamide] | 7.51
CNS(=O)(=O)c1cccc(OC[C@@H](O)CN[C@H]2COC3(CCN(S(=O)(=O)c4cnc5c(c4)N(C(C)C)CCO5)CC3)C2)c1 [Compound 469, 3-((S)-2-hydroxy-3-((R)-8-(1-isopropyl-2,3-dihydro-1H-pyrido[2,3-b][1,4]oxazin-7-ylsulfonyl)-1-oxa-8-azaspiro[4.5]decan-3-ylamino)propoxy)-N-methylbenzenesulfonamide] | 7.50
CCCN1CCOc2ncc(S(=O)(=O)N3CCC4(CC3)C[C@@H](NC[C@H](O)COc3cccc(S(=O)(=O)NC)c3)CO4)cc21 [Compound 470, 3-((S)-2-hydroxy-3-((R)-8-(1-propyl-2,3-dihydro-1H-pyrido[2,3-b][1,4]oxazin-7-ylsulfonyl)-1-oxa-8-azaspiro[4.5]decan-3-ylamino)propoxy)-N-methylbenzenesulfonamide] | 7.45
CNS(=O)(=O)c1cccc(OC[C@@H](O)CN[C@H]2COC3(CCN(S(=O)(=O)c4cnc5c(c4)N(CCOC)CCO5)CC3)C2)c1 [Compound 471, 3-((S)-2-hydroxy-3-((R)-8-(1-(2-methoxyethyl)-2,3-dihydro-1H-pyrido[2,3-b][1,4]oxazin-7-ylsulfonyl)-1-oxa-8-azaspiro[4.5]decan-3-ylamino)propoxy)-N-methylbenzenesulfonamide] | 7.16
CNS(=O)(=O)c1cccc(OC[C@@H](O)CN[C@H]2COC3(CCN(S(=O)(=O)c4cnc5c(c4)N(C)C[C@H](C)O5)CC3)C2)c1 [Compound 472, 3-((S)-3-((R)-8-((S)-1,3-dimethyl-2,3-dihydro-1H-pyrido[2,3-b][1,4]oxazin-7-ylsulfonyl)-1-oxa-8-azaspiro[4.5]decan-3-ylamino)-2-hydroxypropoxy)-N-methylbenzenesulfonamide] | 7.45
CNS(=O)(=O)c1cccc(OC[C@@H](O)CN[C@H]2COC3(CCN(S(=O)(=O)c4cnc5c(c4)N(C)CC(C)(C)O5)CC3)C2)c1 [Compound 473, 3-((S)-2-hydroxy-3-((R)-8-(1,3,3-trimethyl-2,3-dihydro-1H-pyrido[2,3-b][1,4]oxazin-7-ylsulfonyl)-1-oxa-8-azaspiro[4.5]decan-3-ylamino)propoxy)-N-methylbenzenesulfonamide] | 7.23
CNS(=O)(=O)c1cccc(OC[C@@H](O)CN[C@H]2COC3(CCN(S(=O)(=O)c4cnc5c(c4)N(C)CC4(CC4)O5)CC3)C2)c1 [Compound 474, 3-((S)-2-hydroxy-3-((R)-8-(1′-methyl-1′,2′-dihydrospiro[cyclopropane-1,3′-pyrido[2,3-b][1,4]oxazine]-7′-ylsulfonyl)-1-oxa-8-azaspiro[4.5]decan-3-ylamino)propoxy)-N-methylbenzenesulfonamide] | 7.35
CNS(=O)(=O)c1cccc(OC[C@@H](O)CN[C@H]2COC3(CCN(S(=O)(=O)c4cnc5c(c4)ncn5C)CC3)C2)c1 [Compound 475, 3-((S)-2-hydroxy-3-((R)-8-(3-methyl-3H-imidazo[4,5-b]pyridin-6-ylsulfonyl)-1-oxa-8-azaspiro[4.5]decan-3-ylamino)propoxy)-N-methylbenzenesulfonamide] | 7.48
